From US20050032863A1, “Method of treating or preventing central nervous system disorders with compounds having selectivity for the alpha 3 subunit of the benzodiazepine receptor” (priority 2003, published 2005)

What was measured:
[1] = system: extracellular serotonin in the striatum of rats; experiment: Microdialysis in the striatum of rats, reversal by flumazenil (Example 6); format: in vivo, rat
Experimental: The day before the experiment, male rats were anaesthetised with chloral hydrate (3.6%, 1 ml/100 g i.p.) and placed in a stereotaxic frame to implant a microdialysis guide cannula (CMA/12, Carnegie Medicine, Sweden). Scalp was incised in the median anterior-posterior direction between lambda and bregma and a small hole was drilled into the skull. The stereotaxic coordinates were AP=+1.0 mm, L=−3.0 mm from bregma and 1.5 mm from the skull surface for the striatum according to the atlas of Paxinos and Watson, (1986) (1). Dental cement (Sinfony(2)) was used to fix the guide cannula and anchor screws to the cranium. During the surgery rectal temperature was maintained at 37° C. using a heating blanket.
The day before the experiment the microdialysis probe (CMA/12, membrane length 4 mm, Carnegie Medicin, Sweden) was inserted into the striatum through the guide cannula. […] Microvials were stored in a fraction collector (CMA/170) at a temperature of 8° C. until analysed. […]
Dialysates were directly analysed by reverse-phase high-performance liquid chromatography with electrochemical detection (HPLC-EC). […]
Therefore data of each animal were expressed as percentages. Data from dialysates before administering the substances were averaged, and the mean set as 100%; all individual values were calculated accordingly.

[2] = system: female Wistar rats, MK-801-induced stereotypies, hyperactivity and ataxia; experiment: MK-801-induced psychosis-related behaviour and reversibility by flumazenil (Example 7); format: in vivo, rat; details: for effect on other stereotypies when flumazenil is added: 30 mg/kg p.o. + flumazenil 5 mg/kg
Experimental: Apart from the haloperidol rats which received haloperidol 30 minutes and MK-801 10 minutes prior to the test, the other test groups received haloperidol, ELB139 or vehicle 60 minutes prior to test, saline or flumazenil 20 minutes prior to test and MK-801 10 minutes prior to test.
The behaviour induced by the NMDA antagonist MK-801 is generally accepted as a rat model of psychosis. MK-801 induces stereotypies, hyperactivity and ataxia in rats after intraperitoneal administration.
Locomotor activity of the rats is recorded by the MotiTest Apparatus (TSE, Bad Homburg, Germany). The test area consisted of a squared arena (45×45 cm) with protective plexiglass walls (20 cm of height) where rats could freely move. Horizontal movements were recorded by 32 infrared photocells arranged along the bottom of each wall of the arena. Vertical movements (rearings) were recorded by a horizontal row of 32 infrared photocells 12 cm above the floor. The following parameters were measured by the computer program “ActiMot” (TSE, Bad Homburg, Germany): • 1. active time [s] • 2. total distance travelled [m]
Stereotypies, divided into stereotyped sniffing and other stereotypies, and ataxia are scored by the experimenter every five minutes for one hour (12 intervals) according to the method described by Andiné et al. (1999). The scores of the 12 intervals are added for each parameter.
The day of experiment the female rats are placed in the laboratory and receive the test compound, the reference substance or vehicle at the appropriate time prior to test. […]
At the beginning of the test the rats are placed in the centre of the squared arena of the MotiTest apparatus. Behaviour of the rats is recorded for one hour. After each run animals are removed and the boxes thoroughly cleaned and dried.

[3] = system: male Wistar rats; experiment: Rat forced swim test; format: in vivo
Experimental: All animals were treated with verum or vehicle three times: shortly after the habituation session (23 h), 5 and 1 h prior to testing. All drugs were administered orally with an application volume of 1 ml/kg.
The animals were tested in a glass tank (23×30 cm, height 40 cm) filled to a depth of 28 cm with water at 22° C. (the animals could not touch the bottom). The glass tank was illuminated indirectly and was surrounded by dark brown shading walls (distance from the tank 20 cm) to prevent the view on the experimenter. The experiments were performed between 14:00 and 17:00 hours and the method was in general performed as described (Porsolt et al., 1979; Lucki, 1997).
On the first experimental day, rats were gently placed in the water for a 15 min period of habituation. On removal from the water, they were placed in a standard plexiglass box, the floor covered with paper towels, under an infrared heater for 30 min to dry. The next day, they were once more placed gently in the glass tank and observed for 5 min. The behaviour of the animals was video-taped.
Following the experiment the video tapes were analysed manually and the duration of the following behaviours was recorded: Immobility: floating and making only those movements necessary to keep the nose above the water. […] Climbing: when rats strongly move their forepaws in and out of the water, usually against the walls.

[4] = 30 mg/kg p.o. + flumazenil 5 mg/kg i.p., second trial
[5] = 10 and 30 mg/kg p.o., 23, 5 and 1 h prior to testing

## O=C1N=C(N2CCCCC2)CN1c1ccc(Cl)cc1 [ELB139, 1-(4-chlorophenyl)-4-piperidinoimidazolin-2-one]
[1]; 30 mg/kg i.p.
  extracellular serotonin in the striatum compared to mean basal level: marked increase
[1]; ELB139 30 mg/kg i.p., flumazenil 10 mg/kg i.p. 40 minutes later
  increase of extracellular serotonin after flumazenil: not only reversed but serotonin level even decreases below the mean basal level
[2]; 30 mg/kg p.o. + flumazenil 5 mg/kg i.p., all trials and sum
  effect on distance travelled when flumazenil is added: significantly reversed
[2]; 30 mg/kg p.o. + flumazenil 5 mg/kg i.p., both tests and sum
  effect on activity when flumazenil is added: significantly reversed
[2]; 30 mg/kg p.o. + flumazenil 5 mg/kg i.p., first trial and sum of both trials
  effect on stereotyped sniffing when flumazenil is added: significantly reversed
[2]; [4]
  effect on stereotyped sniffing when flumazenil is added: distinctly antagonised
  reducing effect on ataxia when flumazenil is added: reversed
[2]; 30 mg/kg p.o. + flumazenil 5 mg/kg i.p., sum of both trials
  reversing effect of flumazenil on the ataxia effect: marginal
[2]; first trial
  effect on other stereotypies when flumazenil is added: rather amplified
[2]; second trial
  effect on other stereotypies when flumazenil is added: distinctly reversed
[2]; sum of both trials
  effect on other stereotypies when flumazenil is added: no change
[2]; 30 mg/kg p.o., both tests and sum
  MK-801-induced increase of the distance travelled, whole time curve: significantly reduced
[2]; 30 mg/kg p.o., discrete trials and sum of both trials
  MK-801-induced stereotyped sniffing: significantly reversed
[2]; 30 mg/kg p.o., first trial
  MK-801-induced other stereotypies: slightly reduced
[2]; 30 mg/kg p.o., first trial (November 2003)
  MK-801-induced ataxia: hardly affected
[2]; 30 mg/kg p.o., first trial and sum of both tests
  activity induced by MK-801, whole time curve: significantly reduced
[2]; 30 mg/kg p.o., second trial
  activity induced by MK-801, whole time curve: distinctly reduced
[2]; 30 mg/kg p.o., second trial (January 2004)
  MK-801-induced ataxia: more pronounced but still not significant
[2]; 30 mg/kg p.o., second trial and sum of both trials
  MK-801-induced other stereotypies: significantly reversed
[2]; 30 mg/kg p.o., sum of both trials
  MK-801-induced ataxia: only a slight reduction
[3]; 30 mg/kg p.o.
  activity following the return to the homecage (subjective observation): moderate hypoactivity
  climbing time: slight but not significant decrease
[3]; 30 mg/kg p.o., 23, 5 and 1 h prior to testing
  duration of swimming: increased
[3]; 10 and 30 mg/kg p.o.
  tolerability: well tolerated
[3]; [5]
  climbing behaviour: not changed
  time spent immobile: had no effect
